Reference: ChEMBL document CHEMBL5608241, “Discovery of Novel Non-nucleoside DOT1LR231Q Inhibitors with Improved Pharmacokinetic Properties and Anti-lung Cancer Efficacy” (J Med Chem, 2024)
The source made the active and inactive calls. The calls are words filed in the database; no cut-off is given here.

Assays:
NCI-H460 [1] = test: Antiproliferative activity against human NCI-H460 cells harboring DOT1L R231Q mutant (unknown origin) (1 to 416 residues) assessed as inhibition of cell proliferation incubated for 72 hrs by CCK-8 assay; type: functional, cell-based; conditions: NCI-H460, 72 h
NCI-H460 [2] = test: Antiproliferative activity against human NCI-H460 cells harboring wildtype DOT1L (unknown origin) (1 to 416 residues) assessed as inhibition of cell proliferation incubated for 72 hrs by CCK-8 assay; type: functional, cell-based; conditions: NCI-H460, 72 h
NCI-H460 [3] = test: Potency index, ratio of SGC0946 IC50 to test compound IC50 for antiproliferative activity against human NCI-H460 cells harboring DOT1L R231Q mutant (unknown origin) (1 to 416 residues) assessed as inhibition of cell proliferation incubated for 72 hrs by CCK-8 assay; type: functional
NCI-H460 [4] = test: Inhibition of DOT1L R231Q mutant (unknown origin) (1 to 416 residues) exogenously expressed in human NCI-H460 cells assessed as reduction in H3K79me2 level at 5 uM by Western blot analysis relative to control; type: cell-based
NCI-H460 [5] = test: Effect on H3K9me2 expression in human NCI-H460 cells exogenously expressing DOT1L R231Q mutant (unknown origin) (1 to 416 residues) at 5 uM by Western blot analysis; type: functional, cell-based
NCI-H460 [6] = test: Effect on H3K36me2 expression in human NCI-H460 cells exogenously expressing DOT1L R231Q mutant (unknown origin) (1 to 416 residues) at 5 uM by Western blot analysis; type: functional, cell-based
NCI-H460 [7] = test: Effect on H3K79me2 expression in human NCI-H460 cells exogenously expressing wildtype DOT1L (unknown origin) (1 to 416 residues) at 5 uM by Western blot analysis; type: functional, cell-based
NCI-H460 [8] = test: Effect on H3K27me3 expression in human NCI-H460 cells exogenously expressing wildtype DOT1L (unknown origin) (1 to 416 residues) at 5 uM by Western blot analysis; type: functional, cell-based
NCI-H460 [9] = test: Inhibition of sphere formation in human NCI-H460 cells exogenously expressing DOT1L R231Q mutant (unknown origin) (1 to 416 residues) assessed as reduction in self-renewal at 5 uM incubated for 7 to 14 days by inverted microscopic analysis relative to control; type: functional; conditions: time 7-14 day
NCI-H460 [10] = test: Antimigratory activity in human NCI-H460 cells exogenously expressing DOT1L R231Q mutant (unknown origin) (1 to 416 residues) assessed as decrease in number of migrating cells at 2.5 to 5 uM measured after 72 hrs by wound healing assay; type: functional, cell-based; conditions: dose 2.5-5 µM
NCI-H460 [11] = test: Antiinvasive activity against human NCI-H460 cells exogenously expressing wildtype DOT1L (unknown origin) (1 to 416 residues) assessed as decrease in number of invading cells at 5 uM incubated for 72 hrs by crystal violet staining based transwell invasion assay relative to control; type: functional; parameters: scale not given: the % may be the effect or the level left
NCI-H460 [12] = test: Antiinvasive activity against human NCI-H460 cells exogenously expressing DOT1L R231Q mutant (unknown origin) (1 to 416 residues) assessed as decrease in number of invading cells at 5 uM incubated for 72 hrs by crystal violet staining based transwell invasion assay relative to control; type: functional; parameters: scale not given: the % may be the effect or the level left
NCI-H460 [13] = test: Antiinvasive activity against DOT1L knockdown human NCI-H460 cells assessed as decrease in number of invading cells at 2.5 to 5 uM incubated for 72 hrs by crystal violet staining based transwell invasion assay; type: functional, cell-based; conditions: dose 2.5-5 µM
NCI-H460 [14] = test: Inhibition of colony formation in DOT1L knockdown human NCI-H460 cells at 2.5 to 5 uM incubated for 7 to 14 days by crystal violet staining based light microscopic analysis; type: functional, cell-based; conditions: dose 2.5-5 µM, time 7-14 day
NCI-H460 [15] = test: Antitumor activity against human NCI-H460 cells harboring DOT1L R231Q mutant xenografted in male BALB/c-nu mouse model assessed as tumor growth inhibition at 20 mg/kg, ip administered five times a week for 3 weeks relative to control; type: functional; conditions: NCI-H460, 504 h, read-out: TGI
[16] = Toxicity in male BALB/c-nu mouse model xenografted with human NCI-H460 cells harboring DOT1L R231Q mutant assessed as effect on physical activity at 20 mg/kg, ip administered five times a week for 3 weeks; type: organism-based; conditions: in vivo, 504 h
[17] = Toxicity in male BALB/c-nu mouse model xenografted with human NCI-H460 cells harboring DOT1L R231Q mutant assessed as effect on body weight at 20 mg/kg, ip administered five times a week for 3 weeks; type: organism-based; conditions: in vivo, 504 h
[18] = Toxicity in male BALB/c-nu mouse model xenografted with human NCI-H460 cells harboring DOT1L R231Q mutant assessed as effect on heart viscera index at 20 mg/kg, ip administered five times a week for 3 weeks; type: organism-based; conditions: in vivo, 504 h
[19] = Toxicity in male BALB/c-nu mouse model xenografted with human NCI-H460 cells harboring DOT1L R231Q mutant assessed as effect on liver viscera index at 20 mg/kg, ip administered five times a week for 3 weeks; type: organism-based; conditions: in vivo, 504 h
[20] = Toxicity in male BALB/c-nu mouse model xenografted with human NCI-H460 cells harboring DOT1L R231Q mutant assessed as effect on spleen viscera index at 20 mg/kg, ip administered five times a week for 3 weeks; type: organism-based; conditions: in vivo, 504 h
[21] = Toxicity in male BALB/c-nu mouse model xenografted with human NCI-H460 cells harboring DOT1L R231Q mutant assessed as effect on kidney viscera index at 20 mg/kg, ip administered five times a week for 3 weeks; type: organism-based; conditions: in vivo, 504 h
[22] = Tmax in male Sprague-Dawley rat at 20 mg/kg, iv measured after 24 hrs by LC-MS/MS analysis; type: ADME, organism-based; conditions: in vivo
[23] = AUC (0 to t) in male Sprague-Dawley rat at 20 mg/kg, iv measured after 24 hrs by LC-MS/MS analysis; type: ADME, organism-based; conditions: in vivo
[24] = Half-life in male Sprague-Dawley rat at 20 mg/kg, iv measured after 24 hrs by LC-MS/MS analysis; type: ADME, organism-based; conditions: in vivo
[25] = Clearance in male Sprague-Dawley rat at 20 mg/kg, iv measured after 24 hrs by LC-MS/MS analysis; type: ADME, organism-based; conditions: in vivo
[26] = Tmax in male Sprague-Dawley rat at 20 mg/kg, ip measured after 24 hrs by LC-MS/MS analysis; type: ADME, organism-based; conditions: in vivo
[27] = Cmax in male Sprague-Dawley rat at 20 mg/kg, ip measured after 24 hrs by LC-MS/MS analysis; type: ADME, organism-based; conditions: in vivo
[28] = AUC (0 to t) in male Sprague-Dawley rat at 20 mg/kg, ip measured after 24 hrs by LC-MS/MS analysis; type: ADME, organism-based; conditions: in vivo
[29] = Half-life in male Sprague-Dawley rat at 20 mg/kg, ip measured after 24 hrs by LC-MS/MS analysis; type: ADME, organism-based; conditions: in vivo
[30] = MRT (0 to infinity) in male Sprague-Dawley rat at 20 mg/kg, ip measured after 24 hrs by LC-MS/MS analysis; type: ADME, organism-based; conditions: in vivo
[31] = Bioavailability in male Sprague-Dawley rat at 20 mg/kg, ip measured after 24 hrs by LC-MS/MS analysis; type: ADME, organism-based; conditions: in vivo
[32] = target: Dual specificity mitogen-activated protein kinase kinase; MEK1/2 (Homo sapiens) (UniProt P36507+Q02750); test: Inhibition of MEK phosphorylation in human NCI-H460 cells exogenously expressing wildtype DOT1L (unknown origin) (1 to 416 residues) at 5 uM by Western blot analysis; type: cell-based
Dual specificity mitogen-activated protein kinase kinase; MEK1/2 (Homo sapiens), sequence (P36507 whole entry, looked up, the tested form may be a part): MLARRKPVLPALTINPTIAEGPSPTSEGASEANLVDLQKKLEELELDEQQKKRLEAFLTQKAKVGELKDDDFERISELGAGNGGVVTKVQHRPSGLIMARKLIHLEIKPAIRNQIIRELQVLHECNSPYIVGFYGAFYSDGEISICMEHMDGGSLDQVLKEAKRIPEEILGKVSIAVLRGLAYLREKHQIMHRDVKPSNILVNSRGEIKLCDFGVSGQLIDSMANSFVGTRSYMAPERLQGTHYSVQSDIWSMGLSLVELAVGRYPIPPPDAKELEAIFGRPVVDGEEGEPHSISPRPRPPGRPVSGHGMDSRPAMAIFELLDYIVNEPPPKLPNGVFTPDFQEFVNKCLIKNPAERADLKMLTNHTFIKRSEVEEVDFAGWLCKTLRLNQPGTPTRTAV
Dual specificity mitogen-activated protein kinase kinase; MEK1/2 (Homo sapiens), sequence (Q02750 whole entry, looked up, the tested form may be a part): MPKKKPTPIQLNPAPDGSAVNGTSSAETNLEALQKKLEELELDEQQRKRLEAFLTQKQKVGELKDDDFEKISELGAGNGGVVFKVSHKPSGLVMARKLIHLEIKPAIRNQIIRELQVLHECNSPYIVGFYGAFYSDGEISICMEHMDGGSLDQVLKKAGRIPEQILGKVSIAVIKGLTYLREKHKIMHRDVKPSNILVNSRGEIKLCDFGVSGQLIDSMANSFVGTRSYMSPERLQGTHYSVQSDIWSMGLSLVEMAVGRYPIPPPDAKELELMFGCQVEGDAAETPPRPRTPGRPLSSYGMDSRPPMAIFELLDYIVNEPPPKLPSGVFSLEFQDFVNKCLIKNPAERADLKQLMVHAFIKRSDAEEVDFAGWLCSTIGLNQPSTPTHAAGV

Q: Which IC50 (NCI-H460 [1]) does the source give for `CC(C)(C)c1ccc(NC(=O)NCCCN(CCCN2CCOCC2)CC2(O)CCN(c3nc(Cl)nc4sccc34)C2)cc1` (configuration not stated) here?
A: Its IC50 is 2.85 µM.

Q: And the IC50 (NCI-H460 [2])?
A: The IC50 was 20 µM.

Q: What about the “Ratio IC50” value (NCI-H460 [3]) of the same compound?
A: Its value is 1.3.

Q: What about the inhibition (NCI-H460 [4]) of the same compound?
A: Its inhibition is > 50%.

Q: And the Activity (NCI-H460 [5])?
A: Its Activity is “inactive”.

Q: And the Activity (NCI-H460 [6])?
A: Its Activity is “inactive”.

Q: And the Activity (NCI-H460 [7])?
A: Its Activity is “inactive”.

Q: And the Activity (NCI-H460 [8])?
A: Its Activity is “inactive”.

Q: What about the inhibition at 5 µM (NCI-H460 [9]) of the same compound?
A: The inhibition at 5 µM was 82%.

Q: What about the Activity (NCI-H460 [10]) of the same compound?
A: The Activity was “Active”.

Q: What about the Activity (NCI-H460 [11]) of the same compound?
A: Its Activity is 61.5%.

Q: And the Activity (NCI-H460 [12])?
A: The Activity was 77.7%.

Q: What about the Activity (NCI-H460 [13]) of the same compound?
A: Its Activity is “inactive”.

Q: What about the inhibition (NCI-H460 [14]) of the same compound?
A: Its inhibition is “inactive”.

Q: And the inhibition in vivo at 20 mg/kg (NCI-H460 [15])?
A: The inhibition in vivo at 20 mg/kg was 60.6%.

Q: What about the Activity [16] of the same compound?
A: Its Activity is “Non-Toxic”.

Q: What about the Activity [17] of the same compound?
A: The Activity was “Non-Toxic”.

Q: And the Activity [18]?
A: Its Activity is “Non-Toxic”.

Q: What about the Activity [19] of the same compound?
A: The Activity was “Non-Toxic”.

Q: What about the Activity [20] of the same compound?
A: Its Activity is “Non-Toxic”.

Q: What about the Activity [21] of the same compound?
A: The Activity was “Non-Toxic”.

Q: And the Tmax [22]?
A: The Tmax was 4.98 min.

Q: And the AUC(0-t) at 24 h [23]?
A: The AUC(0-t) at 24 h was 5980 ng·h/mL.

Q: And the half-life [24]?
A: The half-life was 3.9 h.

Q: What about the clearance [25] of the same compound?
A: Its clearance is 55.2 mL/min/kg.

Q: And the Tmax [26]?
A: Its Tmax is 0.25 h.

Q: What about the Cmax [27] of the same compound?
A: The Cmax was 2570 ng/mL.

Q: And the AUC(0-t) at 24 h [28]?
A: Its AUC(0-t) at 24 h is 5280 ng·h/mL.

Q: And the half-life [29]?
A: Its half-life is 6.06 h.

Q: What about the MRT inf [30] of the same compound?
A: Its MRT inf is 5.42 h.

Q: And the bioavailability [31]?
A: The bioavailability was 92.2%.

Q: What about the inhibition [32] of the same compound?
A: The inhibition was “inactive”.
